Experimental data reported in patent publication US11370778B2, “Bis(pentahydroxyhexyl)amino substituted 2-{[(3-amino-pyrazin-2-yl)formamido]methyl}-1H-1,3-benzodiazol-3-ium derivatives as ENaC inhibitors for treating respiratory diseases” (ENTERPRISE THERAPEUTICS LIMITED, priority 2017, dated 2022).
Where a name gives a salt, the structure may show the parent alone.

Experiment: Bronchoalveolar lavage: compound levels in BAL after intratracheal administration
Type: in vivo
Details: bronchoalveolar lavage fluid (BAL), other: intratracheal, 0.1 mg/kg, rat, 0.1 mg/mL solution in 5% dextrose, 1 mL/Kg, lungs lavaged after 6 hours, LC/MS/MS
Procedure: Example 9—Bronchoalveolar Lavage A 0.1 mg/mL solution of ENaC inhibitor in 5% dextrose was administered intratracheally to a rat weighing 225-250 g. A volume of 1 mL/Kg was used. After 6 hours, lungs were lavaged with 3×4 mL of sterile saline. A 1 mL aliquot was subsequently snap frozen. Lungs were excised, weighed and snap frozen. Compound levels in the BAL and lung tissue were subsequently determined using LC/MS/MS bioanalysis.

concentration at 6 h [ng/mL]	Structure (SMILES)
471	CCn1c(CNC(=O)c2nc(Cl)c(N)nc2N)[n+](CC)c2ccc(C(=O)NCCN(C[C@H](O)[C@@H](O)[C@H](O)[C@H](O)CO)C[C@H](O)[C@@H](O)[C@H](O)[C@H](O)CO)cc21 [Example 5, 6-[(2-{bis[(2S,3R,4R,5R)-2,3,4,5,6-pentahydroxyhexyl]amino}ethyl)carbamoyl]-2-{[(3,5-diamino-6-chloropyrazin-2-yl)formamido]methyl}-1,3-diethyl-1H-1,3-benzodiazol-3-ium trifluoroacetic acid trifluoroacetate]
251	CCn1c(CNC(=O)c2nc(Cl)c(N)nc2N)[n+](CC)c2ccc(C(=O)NCCOCCOCCOCCN(C[C@H](O)[C@@H](O)[C@H](O)[C@H](O)CO)C[C@H](O)[C@@H](O)[C@H](O)[C@H](O)CO)cc21 [Example 6, 2-{[(3,5-diamino-6-chloropyrazin-2-yl)formamido]methyl}-1,3-diethyl-6-{[(14S,15R,16R,17R)-14,15,16,17,18-pentahydroxy-12-[(2S,3R,4R,5R)-2,3,4,5,6-pentahydroxyhexyl]-3,6,9-trioxa-12-azaoctadecan-1-yl]carbamoyl}-1H-1,3-benzodiazol-3-ium trifluoroacetic acid trifluoroacetate]
645	CCn1c(CNC(=O)c2nc(Cl)c(N)nc2N)[n+](CC)c2ccc(C(=O)NCCc3ccc(-c4ccc(CCN(C[C@H](O)[C@@H](O)[C@H](O)[C@H](O)CO)C[C@H](O)[C@@H](O)[C@H](O)[C@H](O)CO)cc4)cc3)cc21 [Example 7, 6-({2-[4′-(2-{bis[(2S,3R,4R,5R)-2,3,4,5,6-pentahydroxyhexyl]amino}ethyl)-[1,1′-biphenyl]-4-yl]ethyl}carbamoyl)-2-{[(3,5-diamino-6-chloropyrazin-2-yl)formamido]methyl}-1,3-diethyl-1H-1,3-benzodiazol-3-ium trifluoroacetic acid trifluoroacetate]

The remaining lines, values behind:

Structure (SMILES)	concentration at 6 h [ng/mL]
CCn1c(CNC(=O)c2nc(Cl)c(N)nc2N)[n+](CC)c2ccc(C(=O)N3CCC(N(C[C@H](O)[C@@H](O)[C@H](O)[C@H](O)CO)C[C@H](O)[C@@H](O)[C@H](O)[C@H](O)CO)CC3)cc21 [Example 1, 6-(4-{bis[(2S,3R,4R,5R)-2,3,4,5,6-pentahydroxyhexyl]amino}piperidine-1-carbonyl)-2-{[(3,5-diamino-6-chloropyrazin-2-yl)formamido]methyl}-1,3-diethyl-1H-1,3-benzodiazol-3-ium trifluoroacetic acid trifluoroacetate]	222
CCn1c(CNC(=O)c2nc(Cl)c(N)nc2N)[n+](CC)c2ccc(C(=O)N3CCC(CN(C[C@H](O)[C@@H](O)[C@H](O)[C@H](O)CO)C[C@H](O)[C@@H](O)[C@H](O)[C@H](O)CO)CC3)cc21 [Example 3, 6-[4-({bis[(2S,3R,4R,5R)-2,3,4,5,6-pentahydroxyhexyl]amino}methyl)piperidine-1-carbonyl]-2-{[(3,5-diamino-6-chloropyrazin-2-yl)formamido]methyl}-1,3-diethyl-1H-1,3-benzodiazol-3-ium trifluoroacetic acid trifluoroacetate]	210
CCn1c(CNC(=O)c2nc(Cl)c(N)nc2N)[n+](CC)c2ccc(C(=O)N3CC[C@@H](N(C[C@H](O)[C@@H](O)[C@H](O)[C@H](O)CO)C[C@H](O)[C@@H](O)[C@H](O)[C@H](O)CO)C3)cc21 [Example 4, 6-[(3R)-3-{bis[(2S,3R,4R,5R)-2,3,4,5,6-pentahydroxyhexyl]amino}pyrrolidine-1-carbonyl]-2-{[(3,5-diamino-6-chloropyrazin-2-yl)formamido]methyl}-1,3-diethyl-1H-1,3-benzodiazol-3-ium trifluoroacetic acid trifluoroacetate]	524
